Data: US20040266795A1 (priority 2003, published 2004)
Read-outs that look alike come from different tables or passages of the source.

What was measured:
[1] = Stability studies of the prepared FMC (storage, HPLC); type: physicochemical
Experimental: The purity of famciclovir was analyzed by HPLC under the following conditions: […]

[2] = below 85% relative humidity; cited from earlier work
[3] = cited from earlier work
[4] = 1 month, 25° C., 75% relative humidity
[5] = 1 month, 40° C., 75% relative humidity
[6] = 1 month, 55° C., 75% relative humidity
[7] = 2 month, 25° C., 75% relative humidity
[8] = 2 month, 40° C., 75% relative humidity
[9] = 2 month, 55° C., 75% relative humidity
[10] = 3 months, 25° C., 75% relative humidity
[11] = 3 months, 40° C., 75% relative humidity
[12] = 3 months, 55° C., 75% relative humidity
[13] = 5 months, 25° C., 75% relative humidity
[14] = 6 months, 25° C., 75% relative humidity
[15] = 6 months, 40° C., 75% relative humidity
[16] = 6 months, 55° C., 75% relative humidity

Substance: 2-[2-(2-amino-9H-purin-9-yl)ethyl]-1,3-propane diacetate [famciclovir]
- Any, % [1, 4]: 0.00%
- Total, % [1, 4]: 0.00%
- Any, % [1, 5]: 0.00%
- Total, % [1, 5]: 0.00%
- Any, % [1, 6]: 0.00%
- Total, % [1, 6]: 0.00%
- Any, % [1, 7]: 0.00%
- Total, % [1, 7]: 0.00%
- Any, % [1, 8]: 0.06%
- Appear. [1, 8]: White
- MH-FMC RRT 0.51 (%) [1, 8]: 0.06%
- RRT 0.80 (%) [1, 8]: <0.01%
- RRT 0.87 (%) [1, 8]: <0.01%
- RRT 0.89 (%) [1, 8]: 0.01%
- RRT 1.10 (%) [1, 8]: <0.01%
- RRT 1.27 (%) [1, 8]: <0.01%
- RRT 1.35 (%) [1, 8]: <0.01%
- RRT 1.74 (%) [1, 8]: <0.01%
- Total, % [1, 8]: 0.07%
- Any, % [1, 9]: 0.07%
- Appear. [1, 9]: White
- MH-FMC RRT 0.51 (%) [1, 9]: 0.07%
- RRT 0.80 (%) [1, 9]: <0.01%
- RRT 0.87 (%) [1, 9]: <0.01%
- RRT 0.89 (%) [1, 9]: 0.01%
- RRT 1.10 (%) [1, 9]: <0.01%
- RRT 1.27 (%) [1, 9]: <0.01%
- RRT 1.35 (%) [1, 9]: <0.01%
- RRT 1.74 (%) [1, 9]: <0.01%
- Total, % [1, 9]: 0.08%
- Any, % [1, 10]: 0.00%
- Total, % [1, 10]: 0.00%
- Any, % [1, 11]: 0.06%
- Appear. [1, 11]: White
- MH-FMC RRT 0.51 (%) [1, 11]: 0.06%
- RRT 0.80 (%) [1, 11]: <0.01%
- RRT 0.87 (%) [1, 11]: <0.01%
- RRT 0.89 (%) [1, 11]: 0.01%
- RRT 1.10 (%) [1, 11]: <0.01%
- RRT 1.27 (%) [1, 11]: <0.01%
- RRT 1.35 (%) [1, 11]: <0.01%
- RRT 1.74 (%) [1, 11]: <0.01%
- Total, % [1, 11]: 0.07%
- Any, % [1, 12]: 0.06%
- Appear. [1, 12]: White
- MH-FMC RRT 0.51 (%) [1, 12]: 0.06%
- RRT 0.80 (%) [1, 12]: <0.01%
- RRT 0.87 (%) [1, 12]: <0.01%
- RRT 0.89 (%) [1, 12]: 0.01%
- RRT 1.10 (%) [1, 12]: <0.01%
- RRT 1.27 (%) [1, 12]: <0.01%
- RRT 1.35 (%) [1, 12]: <0.01%
- RRT 1.74 (%) [1, 12]: <0.01%
- Total, % [1, 12]: 0.07%
- Any, % [1, 13]: 0.06%
- Appear. [1, 13]: White
- MH-FMC RRT 0.51 (%) [1, 13]: 0.06%
- RRT 0.80 (%) [1, 13]: 0.01%
- RRT 0.87 (%) [1, 13]: 0.02%
- RRT 0.89 (%) [1, 13]: 0.01%
- RRT 1.10 (%) [1, 13]: 0.01%
- RRT 1.27 (%) [1, 13]: 0.01%
- RRT 1.35 (%) [1, 13]: 0.01%
- RRT 1.74 (%) [1, 13]: 0.01%
- Total, % [1, 13]: 0.14%
- Any, % [1, 14]: 0.06%
- MH-FMC RRT 0.51 (%) [1, 14]: 0.06%
- RRT 0.80 (%) [1, 14]: 0.01%
- RRT 0.87 (%) [1, 14]: 0.01%
- RRT 1.27 (%) [1, 14]: 0.01%
- Total, % [1, 14]: 0.09%
- Any, % [1, 15]: 0.06%
- MH-FMC RRT 0.51 (%) [1, 15]: 0.06%
- RRT 0.80 (%) [1, 15]: 0.01%
- RRT 0.87 (%) [1, 15]: 0.01%
- RRT 1.27 (%) [1, 15]: 0.01%
- Total, % [1, 15]: 0.09%
- Any, % [1, 16]: 0.06%
- MH-FMC RRT 0.51 (%) [1, 16]: 0.06%
- RRT 0.80 (%) [1, 16]: 0.01%
- RRT 0.87 (%) [1, 16]: 0.01%
- RRT 1.27 (%) [1, 16]: 0.01%
- Total, % [1, 16]: 0.09%
- monohydroxy impurity content upon storage ([1]; at least 6 months at 25° C., 40° C. or 55° C. and 75% relative humidity): does not increase
- Any, % ([1]; start): 0.00%
- Total, % ([1]; start): 0.00%
- hygroscopicity [2]: not hydroscopic
- partition coefficient P ([3]; octanol/phosphate buffer (pH 7.4)): 2.08
- partition coefficient P ([3]; octanol/water (pH 4.8)): 1.09
